This note sets out measurements from ChEMBL document CHEMBL3217636, “Design, synthesis and biological evaluation of novel benzothiazole and triazole analogs as falcipain inhibitors” (Medchemcomm, 2011).

By IC50 is commonly meant the concentration that inhibits the measured activity by half.

The nature of test [1]: Inhibition of Plasmodium falciparum recombinant falcipain 2.
A short description of test [2]: Inhibition of Plasmodium falciparum recombinant falcipain 3.
Test [3] concerns Plasmodium falciparum. Kind of test: Antimalarial activity against Plasmodium falciparum W2. Format: functional, organism-based.
For a further test, the target named is T1, Cathepsin K (Homo sapiens, UniProt P43235).
T1 sequence (P43235 whole entry): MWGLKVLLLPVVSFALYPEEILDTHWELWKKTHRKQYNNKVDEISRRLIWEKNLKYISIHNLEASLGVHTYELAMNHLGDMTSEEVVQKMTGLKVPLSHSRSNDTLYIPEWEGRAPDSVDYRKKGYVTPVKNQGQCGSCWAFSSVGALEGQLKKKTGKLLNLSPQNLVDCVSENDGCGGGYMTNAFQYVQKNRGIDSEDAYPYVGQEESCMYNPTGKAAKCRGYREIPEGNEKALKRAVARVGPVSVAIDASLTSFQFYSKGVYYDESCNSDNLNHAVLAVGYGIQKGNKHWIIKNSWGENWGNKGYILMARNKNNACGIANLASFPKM
The experiment in a line: Inhibition of human cathepsin K.

The next test addresses Procathepsin L (Homo sapiens, UniProt P07711). The experiment in a line: Inhibition of human cathepsin L1.
Another test addresses Cathepsin B (Homo sapiens, UniProt P07858). Kind of test: Inhibition of human cathepsin B.
Test [4] concerns Plasmodium falciparum. Kind of test: Antimalarial activity against Plasmodium falciparum W2 at 10 uM. Format: functional, organism-based.

Activity calls are given as the source filed them. The calls are words filed in the database; no cut-off is given here.

Procathepsin L, sequence (P07711 whole entry): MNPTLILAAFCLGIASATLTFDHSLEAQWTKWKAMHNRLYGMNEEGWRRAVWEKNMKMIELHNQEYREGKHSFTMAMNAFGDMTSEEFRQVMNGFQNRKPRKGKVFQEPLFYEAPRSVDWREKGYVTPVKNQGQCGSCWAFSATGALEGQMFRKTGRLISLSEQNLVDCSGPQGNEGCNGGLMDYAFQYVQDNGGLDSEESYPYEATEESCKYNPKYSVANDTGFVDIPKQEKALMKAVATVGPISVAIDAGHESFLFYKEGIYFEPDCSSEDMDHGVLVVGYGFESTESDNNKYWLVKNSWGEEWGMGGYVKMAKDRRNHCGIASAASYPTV

Turning to `Cc1cc(NC(=O)Cn2cc(-c3ccc(Oc4ccccc4)cc3)nn2)no1`, the values for the IC50 in test [1] and in test [2] were 19.9 µM and 39.7 µM, respectively.

Consider `O=C(CSc1nc2ccc(NS(=O)(=O)c3ccc(OC(F)(F)F)cc3)cc2s1)c1ccccc1`, for which, in test [1], the concentration for half-maximal inhibition (IC50) amounted to 35.7 µM.

Turning to `CC(C)[C@@H](N)C(=O)Nc1ccc2nc(SCC(=O)c3ccc4ccccc4c3)sc2c1`, the IC50 in test [1] was 12.2 µM; in test [2], 13.8 µM; in the test on Plasmodium falciparum [3], 4.65 µM; against Cathepsin K it was 14.5 µM; on Procathepsin L it was 5.87 µM; on Cathepsin B, above 50 µM.

As to `CCOC(=O)CSc1nc2ccc(NS(=O)(=O)c3ccc4ccncc4c3)cc2s1`, the half-maximal inhibitory concentration (IC50) in test [1] was 31.3 µM.

Take `CCOC(=O)CSc1nc2ccc(N)cc2s1`: in test [1], the IC50 was above 50 µM.

Take `COc1ccc2cc(-c3cn(CC(=O)Nc4cc(C)on4)nn3)ccc2c1`: in test [1], the half-maximal inhibitory concentration (IC50) turned out to be 38.4 µM.

As for `C[C@@H]1CC[C@H]2[C@@H](C)C(=O)O[C@@H]3O[C@@]4(C)CC[C@@H]1[C@]32OO4` [ARTEMISININ], half-maximal inhibition in the test with Plasmodium falciparum [3] (IC50) required 0.012 µM.

In the case of `CC(C)C[C@H](NC(=O)[C@H]1O[C@@H]1C(=O)O)C(=O)NCCCCN=C(N)N` [E-64], the IC50 in test [1] came out at 0.03 µM; on Cathepsin K, 0.004 µM; at Procathepsin L it was 0.016 µM; against Cathepsin B, 0.005 µM.

`Cc1ccc(NC(=O)CSc2nc3ccc(NC(=O)[C@H](N)c4ccccc4)cc3s2)cc1`: the half-maximal inhibitory concentration (IC50) in test [1] was above 50 µM.

As for `Cc1cc(NC(=O)Cn2cc(-c3cccc(O)c3)nn2)no1`, in test [1], the IC50 is above 50 µM.

For the compound `Cc1cc(NC(=O)Cn2cc(-c3ccc(F)cc3)nn2)no1`, in test [1], the IC50 was above 50 µM.

In the case of `Cc1cc(NC(=O)Cn2cc(-c3cccc4ccccc34)nn2)no1`, the IC50 in test [1] is above 50 µM.

As for `Cc1ccc(NC(=O)CSc2nc3ccc(NC(=O)[C@H](N)C(C)C)cc3s2)cc1`, the IC50 in test [1] is above 50 µM.

On to `CCOC(=O)CSc1nc2ccc(NS(=O)(=O)c3ccccc3[N+](=O)[O-])cc2s1`, for which the IC50 in test [1] was above 50 µM.

Take `O=C(CSc1nc2ccc(NS(=O)(=O)c3ccc(F)cc3)cc2s1)c1ccc2ccccc2c1`: the IC50 in test [1] worked out at 43.2 µM.

`Cc1ccc(NC(=O)CSc2nc3ccc(N)cc3s2)cc1`: the IC50 in test [1] is above 50 µM.

In the case of `Cc1ccc(NC(=O)CSc2nc3ccc(NS(=O)(=O)c4ccc5ccncc5c4)cc3s2)cc1`, in test [1], the IC50 was found to be 14 µM.

Turning to `Cc1cc(NC(=O)Cn2cc(-c3ccc(C=O)cc3)nn2)no1`, the IC50 in test [1] was above 50 µM.

Take `O=C(CSc1nc2ccc(NS(=O)(=O)c3ccc4ccncc4c3)cc2s1)c1ccc2ccccc2c1`: the IC50 in test [1] is above 50 µM; in the test on Plasmodium falciparum [3], 2.08 µM.

Turning to `COc1ccc(C(=O)Nc2ccc3nc(SCC(=O)c4ccccc4)sc3c2)cc1`, the IC50 in test [1] was 10.3 µM; in test [2], above 50 µM; with Plasmodium falciparum [3], above 10 µM; against Cathepsin K it was 6.12 µM; at Procathepsin L, 31.6 µM; on Cathepsin B, 17.7 µM.

Turning to `O=C(CSc1nc2ccc(NS(=O)(=O)c3ccc(OC(F)(F)F)cc3)cc2s1)c1ccc2ccccc2c1`, the IC50 in test [1] is above 50 µM.

For the compound `CC(=O)Nc1ccc2nc(SCC(=O)Nc3ccc(C)cc3)sc2c1`, the IC50 in test [1] stood at 13.9 µM.

`Nc1ccc2nc(SCC(=O)c3ccccc3)sc2c1`: in test [1], the IC50 was above 50 µM.

In the case of `CCCCCc1ccc(-c2cn(CC(=O)Nc3cc(C)on3)nn2)cc1`, the 50% inhibitory concentration (IC50) in test [1] was 39 µM.

`O=C(CSc1nc2ccc(NS(=O)(=O)c3ccccc3[N+](=O)[O-])cc2s1)c1ccccc1`: the IC50 in test [1] was 11.1 µM.

Take `CCOC(=O)CSc1nc2ccc(NS(=O)(=O)c3ccc(F)cc3)cc2s1`: the half-maximal inhibitory concentration (IC50) in test [1] is above 50 µM.

Consider `N[C@@H](C(=O)Nc1ccc2nc(SCC(=O)c3ccc4ccccc4c3)sc2c1)c1ccccc1`, for which the IC50 in test [1] was 12.8 µM; in test [2] it was 14.9 µM; on Cathepsin K, 5.62 µM; on Procathepsin L it was 4.39 µM; against Cathepsin B, above 50 µM. In the test on Plasmodium falciparum [4], the result was inactive.

Consider `Nc1ccc2nc(SCC(=O)c3ccc4ccccc4c3)sc2c1`, for which the IC50 in test [1] is above 50 µM.

In the case of `Cc1ccc(NC(=O)CSc2nc3ccc(NS(=O)(=O)c4ccc(OC(F)(F)F)cc4)cc3s2)cc1`, the half-maximal inhibitory concentration (IC50) in test [1] was 16.9 µM.

Regarding `Cc1ccc(NC(=O)CSc2nc3ccc(NS(=O)(=O)c4ccc(F)cc4)cc3s2)cc1`, the concentration for half-maximal inhibition (IC50) in test [1] turned out to be 16.5 µM.

For the compound `Cc1cc(NC(=O)Cn2cc(-c3cccnc3)nn2)no1`, in test [1], the IC50 is above 50 µM.

On to `CC(=O)Nc1ccc2nc(SCC(=O)c3ccc4ccccc4c3)sc2c1`, for which, in test [1], the IC50 amounted to 13.2 µM.

As to `Cc1cccc(-c2cn(CC(=O)Nc3cc(C)on3)nn2)c1`, the 50% inhibitory concentration (IC50) in test [1] is above 50 µM.

With `Cc1cc(NC(=O)Cn2cc(COc3ccccc3)nn2)no1`, the half-inhibitory concentration (IC50) in test [1] is above 50 µM.

As for `Cc1ccc(NC(=O)CSc2nc3ccc(NS(=O)(=O)CC(F)(F)F)cc3s2)cc1`, the IC50 in test [1] is 24.3 µM.

Take `Cc1cc(NC(=O)Cn2nnc(-c3ccc(NC(=O)c4ccc(F)cc4)cc3)n2)no1`: the IC50 in test [1] is 2.2 µM; in test [2], 4.95 µM; in the test on Plasmodium falciparum [3], above 10 µM; against Cathepsin K it was 3.83 µM; against Procathepsin L, 24.4 µM; at Cathepsin B, 37.1 µM.

On to `Cc1cc(NC(=O)Cn2cc(-c3ccccc3)nn2)no1`, for which the half-inhibitory concentration (IC50) in test [1] is above 50 µM.

Turning to `CCOC(=O)CSc1nc2ccc(NS(=O)(=O)CC(F)(F)F)cc2s1`, the IC50 in test [1] is above 50 µM.

For `Cc1cc(NC(=O)Cn2cc(CCCCl)nn2)no1`, the IC50 in test [1] was above 50 µM.
